These results are taken from PMC11583597, “Brain uptake pharmacokinetics of albiglutide, dulaglutide, tirzepatide, and DA5-CH in the search for new treatments of Alzheimer’s and Parkinson’s diseases” (Tissue Barriers, 2023).

Series [1] can be described thus: Brain influx and initial volume of distribution (multiple-time regression analysis). Also on record: species or system male CD-1 mice. The following applies: mouse, in vivo; for Blood to Brain Unidirectional Influx Rate (Ki): iv. As to the method: (§1) Following anesthetization, the jugular vein and right carotid artery were exposed. Mice were given a jugular vein injection of 0.2 ml BSA-LR containing 3 × 10^5 cpm-1×10^6 cpm of an ^125I/^14C-labeled IRA and 5 × 10^5 cpm of ^99mTc-Alb. Blood samples were collected from the carotid artery at various time points from 1 to 60 min after iv injection (see Figure 1). Mice were then decapitated, and their brains were removed and weighed. After clotting, the arterial blood was centrifuged at 3200 ×g for 10 min. Levels of radioactivity in serum (50 μl) and brain were measured in a gamma counter for ^125I and ^99mTc for 3 min. After ^99mTc decay, ^14C-DA5-CH samples were solubilized with Solvable (Sigma), transferred to scintillation vials containing Ecoscint (National Diagnostics) and ^14C was measured in a beta counter. Sample injection checks were taken throughout the course of the study to calculate the mean injected cpm/mouse. To determine the rate of ^125I/^14C-IRA clearance from the serum, the results were expressed as the percentage of an injected dose in each ml of serum (%Inj/ml), which was calculated by dividing the cpm in a ml of serum (cpm/ml serum) by the cpm injected into the mouse (cpm/Inj):
To calculate the blood-to-brain unidirectional influx constant (Ki), multiple-time regression analysis was used as first described by Patlak, Blasberg, and Fenstermacher.[67],[68] The brain/serum (B/S) ratios (μl/g) of the ^125I/^14C-IRA in each gram of brain were calculated from the data in Section 2.6 and plotted against their respective exposure times as previously applied by Rhea et al. 2018.[69] Exposure time differs from clock time in that exposure time corrects for clearance of the ^125I/^14C-IRA from blood and thus, better represents the amount of ^125I/^14C-IRA available for BBB transport at any given time. Delta B/S ratios were calculated by subtracting the vascular space as measured by the B/S ratio for ^99mTc-Alb from the B/S ratio for the respective ^125I/^14C-IRA. Thus, delta B/S ratios represent material that has been taken up by or has crossed the BBB. The slope of the linear portion of the relation between delta B/S ratios and exposure time defines Ki (μl/g-min) and is reported with its error term. This represents Model 1 for DA5-CH. The y-intercept of this linear portion of the relation defines Vi, (μl/g), the initial volume of distribution in brain at t = 0, which is the functional volume per unit brain mass of a soluble compound that exchanges rapidly and reversibly with plasma.[68] Vi consists of the vascular space (Vv) and any residual space after accounting for Vv and usually represents vascular binding (Vr). Since we correct each ^125I/^14C-IRA delta B/S for vascular space, our y-intercept values likely represent vascular binding. For DA5-CH, there appeared to be rapid, early transport that would indicate a Vr equal to 0. Therefore, using Vr equal to 0, we calculated an estimate of this new Ki and refer to it throughout the manuscript as Model 2.

Series [2] is described as follows: In vivo stability of 125I/14C-IRAs in brain (acid precipitation). Also on record: species or system male CD-1 mice. The following applies: mouse, iv. The protocol:
(§2) We measured the stability of the radiolabeled IRAs in brain and blood. Following anesthetization, arterial blood and whole brain were taken at two time points (10 or 60 min) after iv injection of 3 × 10^5 cpm-1×10^6 cpm of ^125I/^14C-IRA in 0.2 ml of BSA/LR. The blood samples were allowed to clot, centrifuged at 3200 ×g for 10 min, and 50 μl of the separated serum was added to 250 μl of BSA-LR. Samples were combined with equal volume 30% TCA (300 μl), mixed, and then centrifuged for 10 min at 5400 ×g. Brains were homogenized in 800 μl of BSA-LR with a bead beater for 30 sec at 4800 rpm twice. Following centrifugation at 5400 ×g for 15 min, a portion of the resulting supernatant was added to an equal volume of 30% TCA, mixed, and then centrifuged at 5400 ×g for 10 min. The radioactivity in the resulting supernatant and pellet (Sup and Pel fractions) for serum and brain was calculated separately, and the percent of radioactivity in the precipitate was calculated using the following equation:(1) %AcidPrecip=100×Pel/Sup+Pel
(§3) To correct for degradation that might have occurred during the processing, ^125I/^14C-IRA was added to non-radioactive arterial whole blood or to whole brain and processed as above. The biological samples were corrected for degradation during processing by dividing their values by those for processing control (Pcon) values and multiplying by 100. This can sometimes result in a value greater than 100%.
(§4) Immediately after counting the radioactivity, the blood and brains from the 10 min and 6 h time points were processed as described in Section 2.5 for in vivo stability. For further comparison, data from the 1 h time point were taken from the original pharmacokinetic uptake study. The ^125I-IRA brain % acid precipitation (%AP) was divided by the ^125I-IRA serum %AP at each time point to calculate the %AP B/S ratio. This value was multiplied by the B/S ratio for each ^125I-IRA to correct for degradation over the 10 min, 1 h, or 6 h time periods. Corrected AP B/S ratios were then corrected for vascular space by subtracting the ^99mTc-Alb B/S ratio within each mouse for the 10 min and 6 h time points (AP corrected delta B/S ratio). For the 1 h time point, the average ^99mTc-Alb B/S ratio (10.03 μl/g) at 10 min across all ^125I-IRAs was used for correction. The AP corrected delta B/S ratio for each ^125I-IRA was then multiplied by the %Inj/ml within each mouse to calculate the AP corrected delta %Inj/g.

On the set-up of series [3]: species or system male CD-1 mice. The following applies: mouse, in vivo, iv. The source says:
This value is then multiplied by the %Inj/ml of each ^125I/^14C-IRA at each time point. After plotting the %Inj/g at each time point for each IRA, we calculated the area under the curve (AUC) to better identify the amount of brain exposure to each IRA over the entire time course.

For series [4] the following is noted: mouse, in vivo, iv.
Procedure: The capillary depletion method was used to separate cerebral capillaries from brain parenchyma. Anesthetized mice received an iv injection of 3 × 10^5-1×10^6 cpm of an ^125I-IRA with 5 × 10^5 cpm ^99mTc-Alb BSA-LR and 15 min later, blood and brains were collected. Whole brains were homogenized with physiological buffer (10 mM HEPES, 141 mM NaCl, 4 mM KCl, 2.8 mM CaCl2, 1 mM MgSO4, 1 mM NaH2PO4, and 10 mM D-glucose adjusted to pH 7.4) using two different sized glass dounce homogenizers, mixed with 26% dextran (Sigma-Aldrich), and centrifuged at 5400 ×g for 15 min at 4°C.[69] The pellet, containing the capillaries, and the supernatant, containing the brain parenchymal/interstitial fluid space, were carefully separated. The ratio of ^125I-IRA radioactivity in the supernatant (parenchyma) was corrected for vascular space by subtracting the B/S ratio of ^99mTc-Alb in the supernatant. The corrected parenchyma/serum and capillary/serum ratios (μl/g) were calculated as (cpm/g tissue)/(cpm/μl) serum.
Series [5] is described as follows: Octanol/buffer partition coefficient (lipid solubility). Format: physicochemical. As to the method:
We measured the lipid solubility of the IRAs, using octanol and PB. Briefly, 1 × 10^5 counts per minute (cpm) of each ^125I/^14C-IRA were added to triplicate tubes containing equal volumes PB and octanol (Sigma-Aldrich). This solution was vigorously mixed for 1 min and centrifuged at 5500 ×g for 10 min to separate the two phases. Aliquots of 100 μl were taken in duplicate from each phase, and total radioactivity was counted in a gamma counter (Wizard2, Perkin-Elmer) or beta counter (TriCarb 3110TR, Perkin-Elmer). The ratio of the cpm in the octanol phase to the cpm in the buffer phase equates to the mean partition coefficient (Pcoeff) and indicates lipophilicity. The log value for the coefficient can be either greater than unity, indicative of a lipophilic compound, or less than unity, indicative of a hydrophilic compound.

The nature of series [6]: In vivo stability of 125I/14C-IRAs in blood/serum (acid precipitation). Also on record: species or system male CD-1 mice. To be noted: mouse, iv. As to the method: as §2, §3, §4
Details of series [7]: species or system male CD-1 mice. To be noted: mouse, in vivo, iv. As to the method:
Anesthetized mice were co-injected iv with 3 × 10^5 cpm-1×10^6 cpm ^125I/^14C-IRA and 5 × 10^5 cpm of ^99mTc-Alb in 0.2 ml BSA-LR with or without 1 μg of the non-radioactive IRA. Fifteen minutes after iv injection, blood was collected from the right carotid artery, and the whole brain was removed and weighed. Samples were counted for radioactivity. Results were expressed as delta B/S ratios in units of μl/g.
This is another data set of the same source.

Details of series [8]: species or system male CD-1 mice. The following applies: mouse, in vivo, iv. As to the method:
as §1
(2) %Inj/ml=100×cpm/mlserum/meancpm/Inj
The log(%Inj/ml) was plotted against time to calculate the rate of clearance from the serum. To calculate the half-time clearance in minutes, the inverse slope […] of the curve for each IRA was multiplied by 0.301 (log10[2]). The blood and brain cpm data were used for the measurement of brain influx and initial volume of distribution in brain as described in Section 2.7.
The source holds these as a separate data set.

The conditions of series [9]: mouse, in vivo, iv; cited from earlier work.
For series [10] the following is noted: mouse, in vivo; cited from earlier work. As to the method: The rank order of IRAs showing significant brain uptake 1 h after iv injection with respect to AUCs is similar, but not identical to the rank order of their Ki’s (see Figures 5b and 3b). Less similar is the rank order of IRAs for uptake into brain parenchyma defined as the percent reaching the brain that was in its parenchyma vs. its capillaries. The rank order of parenchymal uptake was specifically DA4-JC (89.7%) = albiglutide (BAF) (89.4%) > DA3-CH (86%) > exenatide (84.2%) > Peptide 17 (73.2%) > lixisenatide (66.8%) > dulaglutide (BAF) (61.8%) > DA5-CH (57.6%) > Peptide 21 (43.6%) > liraglu ...

For series [11] the following is noted: mouse, in vivo, iv; cited from earlier work. This is another data set of the same source.
Source text: The unidirectional blood-to-brain influx rate (Ki) calculated from Figure 2c for all four IRAs tested is graphed with previously calculated Ki’s for other IRAs[50] in Figure 3 by rank.

Like-named read-outs stand apart in the source and are kept apart here. Marks after values point to notes of the source that are not given here.

Take “HGEGTFTSDVSSYLEEQAAKEFIAWLVKGGG [Dulaglutide (BAF)]”: in series [1], the “Blood to Brain Unidirectional Influx Rate (Ki)” value (“Blood” below) was found to be 1.095 ± 0.072 µL/g/min. Besides, in [2], the “Percentage of labeled IRA intact, Whole Brain, 10 min” value (“Percentage … Whole Brain, 10 min” for short) amounted to 58.42 ± 0.3% and the “Percentage of labeled IRA intact, Whole Brain, 60 min” value (shortened to “Percentage … Whole Brain, 60 min”) came out at 37.47 ± 4.1%. Also, in [3], the “Percent of injected dose taken up per gram brain (%Inj/g), 10 min” value is listed as 0.20 %Inj/g and the “Percent of injected dose taken up per gram brain (%Inj/g), 60 min” value came to 0.33 %Inj/g. Besides, the “Percent in Parenchyma vs. Capillaries” value in [4] was 61.8%. Further, in [5] (pH 7.5), the “Lipid Solubility Partition Coefficient” value was 0.0102 ± 0.0007 and the “Log Partition Coefficient (Log P)” value was -1.991 ± 0.0287. Moreover, in series [6], the “Percentage of labeled IRA intact, Serum, 10 min” value (“Percentage … Serum, 10 min” below) amounted to 84.67 ± 0.8% and the “Percentage of labeled IRA intact, Serum, 60 min” value (“Percentage … Serum, 60 min” below) was 39.1 ± 1.4^a %. The “Whole Brain delta brain/serum ratio, Without unlabeled IRA” value in series [7] worked out at 17.86 ± 0.99 µL/g. For the same substance, in series [8], the “Half-Time Serum Clearance (t1/2)” value was determined as 6.02 min.
In the case of “exenatide: FDA-approved IRA tested in the earlier study (ref 50)”, the “%Inj/g by 60 min” value in series [9] is 0.56 %Inj/g. For the same substance, in series [10], the “Percent reaching the brain that was in parenchyma vs. capillaries” value was 84.2%. In addition, the “Blood” value in [11] is 0.4231 µL/g/min.
Consider “HGEGTFTSDVSSYLEGQAAKEFIAWLVKGR [Albiglutide (BAF)]”, for which the “Blood” value in [1] stood at 1.379 ± 0.086 µL/g/min. Besides, in series [2], the “Percentage … Whole Brain, 10 min” value is reported as 43.35 ± 2.9% and the “Percentage … Whole Brain, 60 min” value was 40.9 ± 9.3%. In addition, in series [3], the “Percent of injected dose taken up per gram brain (%Inj/g), 15 min” value was determined as 0.36 %Inj/g. In addition, the “Percent in Parenchyma vs. Capillaries” value in series [4] turned out to be 89.4%. Moreover, in [5] (pH 7.5), the “Lipid Solubility Partition Coefficient” value was 0.0132 ± 0.0040 and the “Log Partition Coefficient (Log P)” value was -1.916 ± 0.121. Also, in [6], the “Percentage … Serum, 10 min” value is 53.96 ± 0.4% and the “Percentage … Serum, 60 min” value is 20.71 ± 1.3^a %. Further, in series [7], the “Whole Brain delta brain/serum ratio, Without unlabeled IRA” value is 39.3 ± 1.50 µL/g. For the same substance, the “Half-Time Serum Clearance (t1/2)” value in series [8] turned out to be 6.14 min.
Consider “YXEGTFTSDYSIYLDKQAAXEFVNWLLAGGPSSGAPPPSKRRQRRKKRGY-NH2 [DA5-CH, Experimental balanced GIPR/GLP-1R dual agonist; Peptide 18 of Finan et al. with extension; custom synthesized by AnaSpec]”, for which, in [1], the “Probable Ki of DA5-CH” value is 0.24 to 2.5 µL/g/min, the “Probable Vr of DA5-CH” value lay in the range of 0 to 11.2 µL/g and the “Blood” value turned out to be 0.242 ± 0.128 µL/g/min. Moreover, in [2], the “Percentage … Whole Brain, 10 min” value is reported as 79.7 ± 12.9% and the “Percentage … Whole Brain, 60 min” value came to 77.61 ± 22.3%. Moreover, in series [4], the “Percent in Parenchyma vs. Capillaries” value is given as 57.6%. Moreover, in series [5] (shake-flask octanol / sodium phosphate buffer pH 7.5 (PB), radiolabelled IRA, gamma or beta counting, mean ± SE, triplicate tubes), the “Log Partition Coefficient (Log P)” value was -2.183 ± 0.0281. For the same substance, in series [6], the “Percentage … Serum, 10 min” value amounted to 83.83 ± 4.9% and the “Percentage … Serum, 60 min” value is reported as 49.35 ± 2.5^a %. The “Whole Brain delta brain/serum ratio, Without unlabeled IRA” value in series [7] was determined as 26.25 ± 8.07 µL/g. Further, the “Half-Time Serum Clearance (t1/2)” value in series [8] is given as 2.03 min.
